Test results as given in patent publication US20140179681A1, “METHODS AND COMPOSITIONS OF TARGETED DRUG DEVELOPMENT” (priority 2010, published 2014).
Structures can show the parent of a compound that is named as a salt. Where two headings read alike, the source gives them in different places.

Experiments:
EGFR = molecular target: T1, EGFR (Homo sapiens, UniProt P00533); assay: EGFR in-cell Western (ICW) screening protocol (EGFR inhibition assay); format: cell-based; parameters: ICW 1 / ICW 2 / ICW Avg: unit not given here; conditions: for ICW Avg / ICW 1 / ICW 2: ICW assay; for ICW Avg: average of runs 1 and 2; for ICW 1: run 1; for ICW 2: run 2; for ICW Screen: Table 11, % Inhibition of EGF dependent EGFR phosphorylation in A431 cells, compound 125 μM in assay
T1 construct: host or cells: A431
T1 sequence (P00533 25-1210): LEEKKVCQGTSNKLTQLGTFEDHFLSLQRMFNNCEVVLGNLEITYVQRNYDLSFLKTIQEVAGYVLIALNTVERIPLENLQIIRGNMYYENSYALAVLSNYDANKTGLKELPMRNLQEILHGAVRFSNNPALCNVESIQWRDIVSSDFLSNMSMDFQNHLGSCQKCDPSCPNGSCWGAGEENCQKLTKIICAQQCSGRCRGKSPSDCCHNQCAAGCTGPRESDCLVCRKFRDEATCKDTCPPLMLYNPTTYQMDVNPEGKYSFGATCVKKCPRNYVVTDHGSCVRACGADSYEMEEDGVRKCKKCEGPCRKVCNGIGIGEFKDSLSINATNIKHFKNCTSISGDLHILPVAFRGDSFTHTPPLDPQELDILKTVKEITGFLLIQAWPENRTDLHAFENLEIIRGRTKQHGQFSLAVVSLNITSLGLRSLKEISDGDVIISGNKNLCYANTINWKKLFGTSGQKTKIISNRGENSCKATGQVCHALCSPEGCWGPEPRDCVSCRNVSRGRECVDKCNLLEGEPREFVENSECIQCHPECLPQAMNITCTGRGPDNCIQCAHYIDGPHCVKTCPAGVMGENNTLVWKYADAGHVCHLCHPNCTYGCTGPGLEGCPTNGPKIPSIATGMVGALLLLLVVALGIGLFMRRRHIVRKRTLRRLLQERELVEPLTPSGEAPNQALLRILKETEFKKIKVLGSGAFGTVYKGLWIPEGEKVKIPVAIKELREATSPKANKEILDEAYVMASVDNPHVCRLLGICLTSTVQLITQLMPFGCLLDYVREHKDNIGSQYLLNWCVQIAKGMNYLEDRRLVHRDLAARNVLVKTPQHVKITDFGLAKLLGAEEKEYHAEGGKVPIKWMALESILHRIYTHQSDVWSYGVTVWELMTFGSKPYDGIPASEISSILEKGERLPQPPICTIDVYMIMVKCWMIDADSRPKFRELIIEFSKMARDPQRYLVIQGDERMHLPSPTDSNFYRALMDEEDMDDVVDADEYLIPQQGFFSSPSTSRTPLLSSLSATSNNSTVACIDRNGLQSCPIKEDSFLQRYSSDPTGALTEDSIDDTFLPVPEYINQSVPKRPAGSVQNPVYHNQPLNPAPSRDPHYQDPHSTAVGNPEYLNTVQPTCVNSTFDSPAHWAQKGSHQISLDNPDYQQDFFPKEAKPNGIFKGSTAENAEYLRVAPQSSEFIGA
Method: The following example describes general EGFR in-cell Western (ICW) screening protocol. Methods are according to Chen et al. (2005) Analytical Biochemistry 338, 136-142 (incorporated herein by reference), except as otherwise noted.
Cell Plates: A431 cells (ATCC # CRL-1555) were grown in Dulbecco's Modified Eagle Medium (DMEM; ATCC #30-2002) supplemented with 10% fetal bovine serum, 105 units/ml pen/strep (Invitrogen #15140155) and 2.1 mM L-glutamine (ATCC #30-2214). Cells were seeded into 96 well tissue culture plates (BD Falcon #353948) at a density of 30,000 cells per well and incubated at 37° C. with 5% CO2 overnight. Two cell plates were prepared for each compound plate.
Serum Starvation: The cells were serum starved prior to compound addition. The media was removed by aspiration and the cells washed with PBS (200 μl/well; Invitrogen #20012-027). The PBS was removed by aspiration and replaced with 200 μl of DMEM (ATCC #30-2002) supplemented with 105 units/ml pen/strep (Invitrogen #15140155) and 2.1 mM 1-glutamine (ATCC #30-2214). The cell plates were incubated at 37° C./5% CO2 for 2 hours.
Compound Plate Preparation: The test compounds were solvated in 100% DMSO (Sigma #472301-2L) at a concentration of 25 mM. Compounds found not to be completely soluble in 100% DMSO at 25 mM were diluted to 10 mM with 100% DMSO and TFA (Fluka #91699) added to a final concentration of 0.2%. 40 μl of test compound was added to the appropriate well of a 96 well plate (Falcon #351190). As controls, 6 μM EGFR kinase inhibitor PD168393 (EMD/Calbiochem #513033) in 100% DMSO and DMSO alone were added to various wells. Prepared compound plates were stored at RT prior to use and at 4° C. long term.
Compound Dilution Plate Preparation: 250 μl of DMEM supplemented with 1 mg/ml BSA (Sigma A3059-10G) was added to the appropriate wells of a 96 well plate to prepare the compound dilution plates. Using a multichannel pipettor, 1.25 μl of compound from the compound plate was transferred into the compound dilution plate.
Compound Addition: The starve media was removed from the cell plates by aspiration. Using a multichannel pipettor, the compound dilution plates were mixed by pipetting up and down three times. 50 μl of mixed, diluted compound was added to each of two rows/columns on each of two cell plates. The cell plates with compound were incubated at 37° C./5% CO2 for 4 hours.
EGF Addition: 20 ng/ml EGF (Upstate #01-107) was prepared in DMEM supplemented with 1 mg/ml BSA. 50 μl of 20 or 0 ng/ml EGF was added to the appropriate wells without the removal of compound. The compound and EGF were mixed by pipetting up and down three times. The plates were incubated at 37° C./5% CO2 for 10 min. In some screening assays the final concentration of EGF used for simulation was 6.6, or 12.5 ng/ml rather than 10 ng/ml.
Fixation and Triton Washing: The EGF+compound was removed by aspiration and 150 μl of freshly prepared Fixation Solution (1×PBS, Sigma P3813-10PK, and 4% Formaldehyde, Pierce #28908) was immediately added. The plates were incubated at RT for 20 min without shaking. The Fixation Solution was removed by aspiration and the plates washed four times with 200 μl each of Triton Wash Solution (1×PBS, Sigma P3813-10PK, and 0.1% Triton X-100, T8787-50ML) for 5 min with gentle shaking.
Blocking and Probing: Following the last Triton Wash, the plates were blocked for 1.5 h at RT with shaking using 150 μl of Odyssey Blocking Buffer (LI-COR #927-40000). The block was removed by aspiration and 50 μl of diluted primary Ab mix was added. The plates were incubated at 4° C. overnight with gentle shaking. The plates were washed five times with 200 μl of PBST (1×PBS, Sigma P3813-10PK, and 0.1% Tween-20, Sigma P9416-50ML) for 5 min each with shaking 50 μl of diluted secondary Ab mix was added and the plates incubated at RT for 1 h with shaking. The plates were washed 5× with 200 μl of PBST for 5 min each with shaking. […]

[1] = tested on: epithelial carcinoma A431 cell line; assay: MTT Cell Proliferation Assay, A431 cells; format: cell-based; conditions: for MTT Assay IC50(A431/MDBK): ratio in parentheses: ratio MDBK IC50 / A431 IC50 (selectivity)
From the text: (§1) The following example describes the MTT Cell Proliferation Assay.
(§2) The MTT Cell Proliferation Assay is a colorimetric assay system that measures the reduction of the tetrazolium salt MTT (3-(4,5-dimethylthiazol-2-yl)-2,5-diphenyltetrazolium bromide) into insoluble formazan crystals, produced by the mitochondria of viable cells. […] The color can then be quantified by spectrophotometric means. Among the applications for the method are drug sensitivity, cytotoxicity, response to growth factors, and cell activation. The reduction of tetrazolium salts is now recognized as a safe, accurate alternative to radiometric testing.
(§3) Two replicates on each cell plate and 2 duplicate plates gave 4 individual replicates of each concentration, in each cell line. Concentrations were diluted in 100% DMSO from 25 mM stocks.
(§4) Twelve 96 well plates of each cell line were plated. Plating was done by dislodging cells as in passage protocol, counting on a hemocytometer, re-suspending in standard growth media, and plating using a multichannel pippetor.
(§5) 16 μl of 25 mM stock+34 μl DMSO=8 mM starting concentrations, and serial diluted as with test compounds in same plate. […] Two replicates of each concentrations was run on each cell plate. All compound addition and cell treatments were done using aseptic technique under a laminar flow aseptic hood.
(§6) Control: 0.5% DMSO in treatment media was used as the control.
(§7) MTT dye (Thiazolyl Blue Tetrazolium Bromide, Sigma cat #M5655) stock was prepared in bulk and stored at 4° C. for use: 5 mgs/ml sterile PDS, shielded from light. 4 ul of this stock per 100 uls treatment media per well was used.
(§8) Plates were incubated overnight prior to treatment, with treatment day=Day 0. Compound treatments were prepared prior to washing cells to minimize time cells were dry at room temperature after final aspiration. Compounds were diluted in 100% DMSO in 96 well polypropylene plates: 40 μl 25 mM stock+10 μl DMSO=20 mM; 20 μl of 20 mM+30 μl DMSO=8 mM; 20 μl of 8 mM+30 μl DMSO=3.2 mM; 20 μl of 3.2 mM+30 μl DMSO=1.3 mM; 20 μl of 1.3 mM+30 μl DMSO=0.51 mM.
(§9) 5.0 μl/ml were added to treatment media, in sterile, 2.2 ml deep well plates=0.5% dmso final. Ten μl of each dmso concentration was added to 2.0 ml of treatment media and then mixed using a 1200 μl multichannel pipettor. Cell plates were treated from the deep well plates. Treatment media was standard growth media containing 0.5% FBS and standard additions. This reduced FBS concentration allowed for a slower growth rate in cells.
(§10) Media was aspirated from cell plates, and washed with 200 μl/well sterile PBS. Aspirated PBS wash, and cell plates were treated with 200 μl of compound/treatment media per well, and incubated at 37° C., 5% CO2 for 3 days.
(§11) Prior to harvesting, visual observations were made under an inverted microscope. Plates were harvested by: aspirating the growth media; adding back MTT dye/100 μl treatment media; and incubating plates at 37° C. for 1 hour. MTT dye was aspirated. 100 μl/well dmso was added, and then shaken on a Bellco plate shaker for 5 minutes, at 4.5 setting.
(§12) Plates were read in a Tecan Sunrize UV plate reader, at 560 nm. Settings: Read mode, Outside Normal 2 sec; Shake settle time 3 sec. Data is reported as % inhibition, calculated for individual plates using control values from that plate.

MDBK line = assay: MTT Cell Proliferation Assay, MDBK cells; format: cell-based, bovine
From the text: as §1, §2, §3, §4, §5, §6, §7, §8, §9, §10, §11, §12

[2] = A431 cells, first value of cell, read-out: MTT Assay IC50(A431/MDBK): A431
[3] = MDBK cells, second value of cell, read-out: MTT Assay IC50(A431/MDBK): MDBK

Compound | ICW Avg (EGFR) | ICW 1 (EGFR) | ICW 2 (EGFR) | IC50 [1, 2] | MTT Assay IC50(A431/MDBK): ratio in parentheses [1] | IC50 (MDBK line; [3]) | other results
CCCCc1c(C)nc(Nc2nc(C)c3ccccc3n2)[nH]c1=O [12743 + TFA] | 25.65 | 9.17 | 42.12 | 6.88 µM | 1.43 | 9.86 µM | –
COc1ccc(N2CCN(Cc3cc(=O)oc4cc5c(cc34)OCO5)CC2)cc1 [AD4-10209] | – | – | – | – | – | – | ICW Screen (EGFR): −10.6; IC50 ([1]; Homo sapiens, A-431, Table 11, first of x/y(ratio): A431, unit inferred, read-out: MTT Follow-up (first value)): 2.5 µM; IC50 (MDBK line; Bos taurus, MDBK, Table 11, second of x/y(ratio): MDBK, unit inferred, read-out: MTT Follow-up (second value)): 50.1 µM
Cc1cc(C)nc(NS(=O)(=O)c2ccc(NC(=S)NC(=O)/C=C/c3ccc(Cl)cc3)cc2)n1 [AD4-11648] | – | – | – | – | – | – | ICW Screen (ICW Inhibition) (EGFR): 38.362; IC50 ([1]; Homo sapiens, A-431, first value of 'a/b (c)', taken as A431 cells, read-out: MTT Screen, first value of cell): 46.7 µM; IC50 (MDBK line; Bos taurus, MDBK, second value of 'a/b (c)', taken as MDBK cells, read-out: MTT Screen, second value of cell): 45.1 µM
CCc1cc2c(CN3CCN(Cc4ccccc4)CC3)cc(=O)oc2cc1O [AD4-10631] | – | – | – | – | – | – | ICW Screen (EGFR): 104.48; IC50 ([1]; Table 11, first of x/y(ratio): A431, unit not printed (doses in μM), read-out: MTT Screen (first value)): 35.6 µM; IC50 (MDBK line; Table 11, second of x/y(ratio): MDBK, unit not printed (doses in μM), read-out: MTT Screen (second value)): 37.5 µM
Cc1ccc2c(C)nc(Nc3nc(C)c(CCC(C)C)c(=O)[nH]3)nc2c1 [11712 + TFA] | 39.53 | 32.96 | 46.11 | – | 0.92 | – | IC50 ([1]; Homo sapiens, A-431, A431 cells, first value of cell, read-out: MTT Assay IC50(A431/MDBK): A431): 18.7 µM; IC50 (MDBK line; Bos taurus, MDBK, MDBK cells, second value of cell, read-out: MTT Assay IC50(A431/MDBK): MDBK): 17.3 µM

More lines, main results first:

ICW Avg (EGFR) | ICW 1 (EGFR) | ICW 2 (EGFR) | IC50 [1, 2] | MTT Assay IC50(A431/MDBK): ratio in parentheses [1] | Compound | IC50 (MDBK line; [3]) | other results
89.48 | 89.93 | 89.02 | 15.6 µM | 1.63 | CCOC(=O)c1c(N)nc(Nc2nc(C)c3cc(C)ccc3n2)nc1-c1ccccc1 [compound 12681] | 25.4 µM | –
33.01 | 32.26 | 33.77 | 5.17 µM | 1.03 | COc1cccc2c(C)nc(Nc3nc(-c4ccc(F)cc4)cc(=O)[nH]3)nc12 [compound 12620] | 5.3 µM | –
